Laboratory results published in patent US20100098782A1, “USE OF SODIUM ACID SULFATE AS A DISINFECTANT” (JOHNSONDIVERSEY, INC., priority 2008, published 2010).
“And” between values parts separate entries of the source, which are not always exact repeats. Equal entries are not always repeated.

How the values were obtained:
[1] = test system: organisms on freshly killed whole birds (3M Aerobic Count Petrifilm); assay: Whole bird carcass dip test, aerobic count; conditions: for Organisms/Bird: individual birds
Protocol: In order to test the efficacy of the composition of the present invention for use in treating animal carcasses, freshly killed whole birds were dipped and completely immersed in 13 liters of treatment solution for 10 seconds. […] The growth medium was 3M Aerobic Count Petrifilm. The incubation was 2-3 days at 35° C. […] The same test was repeated using commercially available products, […]12, and Eden, comparing these with sodium acid sulfate and sodium acid sulfate in combination with citric acid.

[2] = test system: Escherichia coli, ATCC #11229; assay: Modification of the Germicidal and Detergent Sanitizing Action of Disinfectants (A.O.A.C.); format: cell-based; conditions: 4000 ppm, 25° C.
Protocol: The germicidal effectiveness of 4000 ppm of sodium acid sulfate was tested at various levels of pH. The pH of the solutions was adjusted by addition of sodium hydroxide. The test method was A Modification of the Germicidal and Detergent Sanitizing Action of Disinfectants, A.O.A.C., 17th Edition 2000. The test organism was Escherichia coli, ATCC #11229 (560,000 org/ml), which was contacted with the sodium acid sulfate for 10 seconds and 30 seconds at 25° C. The recovery medium was Tryptone Glucose Extract Agar with Asolectin and Tween 80. Phosphate Buffer 0.2M was employed.

Salmonella enteriditis = assay: Antimicrobial effectiveness, suspension contact test; format: cell-based
Protocol: In order to determine the antimicrobial effectiveness of the present invention, Salmonella enteriditis at 120,000,000 organisms per milliliter was contacted for 30 seconds, 1 minute, or 2 minutes, with 2,000 ppm SAS, or 4,000 ppm SAS at the indicated pH. The neutralizer was 0.2M Phosphate Buffer, pH 7.0, and the growth medium was 3M Aerobic Count Petrifilm using an incubation time of 4 days at 35° C.

[3] = 2400 ppm Lactic Acid, 10 seconds dip, pre 5 bird dip pH 1.80, post pH 1.96
[4] = 4800 ppm Lactic Acid, 10 seconds dip, pre 5 bird dip pH 1.80, post pH 1.96
[5] = 2000 ppm SAS, 10 seconds dip, pre 5 bird dip pH 1.60, post pH 1.78
[6] = 2000 ppm SAS, repeated test (Table 5)
[7] = 4000 ppm SAS, 10 seconds dip, pre 5 bird dip pH 1.56, post pH 1.75
[8] = 2000 ppm, pH 1.5, 30 seconds contact
[9] = 2000 ppm, pH 1.5, 2 minutes contact
[10] = 2000 ppm, pH 1.75, 30 seconds contact
[11] = 2000 ppm, pH 1.75, 1 minute contact
[12] = 2000 ppm, pH 2.0, 30 seconds contact
[13] = 2000 ppm, pH 2.0, 1 minute contact
[14] = 2000 ppm, pH 2.0, 2 minutes contact
[15] = 2000 ppm, pH 2.25, 30 seconds contact
[16] = 2000 ppm, pH 2.25, 1 minute contact
[17] = 2000 ppm, pH 2.25, 2 minutes contact
[18] = 2000 ppm, pH 2.5, 30 seconds contact
[19] = 2000 ppm, pH 2.5, 1 minute contact
[20] = 2000 ppm, pH 2.5, 2 minutes contact
[21] = 4000 ppm, pH 1.5, 30 seconds contact
[22] = 4000 ppm, pH 1.75, 30 seconds contact
[23] = 4000 ppm, pH 2.0, 30 seconds contact
[24] = 4000 ppm, pH 2.25, 30 seconds contact
[25] = 4000 ppm, pH 2.25, 1 minute contact
[26] = 4000 ppm, pH 2.25, 2 minutes contact
[27] = 4000 ppm, pH 2.5, 30 seconds contact
[28] = 4000 ppm, pH 2.5, 1 minute contact
[29] = 4000 ppm, pH 2.5, 2 minutes contact

Structure (SMILES): CC(O)C(=O)O (stereo not drawn) [Lactic Acid, lactic acid, reference compound]
- Average Organisms/Bird [1, 3]: 2,054,800 Organisms/Bird
- Organisms/Bird [1, 3]: 600,000 Organisms/Bird and 1,074,000 Organisms/Bird and 2,120,000 Organisms/Bird and 3,240,000 Organisms/Bird (2×)
- % Reduction ([1]; 2400 ppm Lactic Acid, 10 seconds dip, pre 5 bird dip pH 1.80, post pH 1.96, vs no-treatment control): 10.8%
- Average Organisms/Bird [1, 4]: 1,430,000 Organisms/Bird
- Organisms/Bird [1, 4]: 1,000,000 Organisms/Bird and 1,800,000 Organisms/Bird and 1,400,000 Organisms/Bird and 1,520,000 Organisms/Bird
- % Reduction ([1]; 4800 ppm Lactic Acid, 10 seconds dip, pre 5 bird dip pH 1.80, post pH 1.96, vs no-treatment control): 37.9%
- antimicrobial effect in carcass dip (in words) ([1]; lactic acid itself (2400 and 4800 ppm)): relatively little antimicrobial effect

Structure (SMILES): O=S(=O)([O-])O.[Na+] [SAS, sodium acid sulfate]
- Average Organisms/Bird [1, 5]: 576,000 Organisms/Bird
- Organisms/Bird [1, 5]: 584,000 Organisms/Bird and 536,000 Organisms/Bird and 660,000 Organisms/Bird and 520,000 Organisms/Bird and 580,000 Organisms/Bird
- % Reduction ([1]; 2000 ppm SAS, 10 seconds dip, pre 5 bird dip pH 1.60, post pH 1.78, vs no-treatment control): 75.0%
- Average Organisms/Bird [1, 6]: 246,400 Organisms/Bird
- Organisms/Bird [1, 6]: 556,000 Organisms/Bird and 128,000 Organisms/Bird and 264,000 Organisms/Bird and 88,000 Organisms/Bird and 196,000 Organisms/Bird
- % Reduction ([1]; 2000 ppm SAS, repeated test (Table 5), vs wash control): 88.7%
- Average Organisms/Bird [1, 7]: 618,400 Organisms/Bird
- Organisms/Bird [1, 7]: 396,000 Organisms/Bird and 528,000 Organisms/Bird and 392,000 Organisms/Bird and 476,000 Organisms/Bird and 1,300,000 Organisms/Bird
- % Reduction ([1]; 4000 ppm SAS, 10 seconds dip, pre 5 bird dip pH 1.56, post pH 1.75, vs no-treatment control): 73.2%
- performance in carcass dip (in words) ([1]; both 2000 ppm and 4000 ppm): perform well
- % Reduction ([2]; pH 1.49, 10 seconds contact): 92.321%
- Survivors ([2]; pH 1.49, 10 seconds contact): 43,000,000 org/ml
- % Reduction ([2]; pH 1.49, 30 seconds contact): 92.804%
- Survivors ([2]; pH 1.49, 30 seconds contact): 40,300,000 org/ml
- % Reduction ([2]; pH 1.59, 10 seconds contact): 88.696%
- Survivors ([2]; pH 1.59, 10 seconds contact): 63,300,000 org/ml
- % Reduction ([2]; pH 1.59, 30 seconds contact): 89.732%
- Survivors ([2]; pH 1.59, 30 seconds contact): 57,500,000 org/ml
- % Reduction ([2]; pH 1.70, 10 seconds contact): 90.750%
- Survivors ([2]; pH 1.70, 10 seconds contact): 51,800,000 org/ml
- % Reduction ([2]; pH 1.70, 30 seconds contact): 91.785%
- Survivors ([2]; pH 1.70, 30 seconds contact): 46,000,000 org/ml
- % Reduction ([2]; pH 1.79, 10 seconds contact): 92.321%
- Survivors ([2]; pH 1.79, 10 seconds contact): 43,000,000 org/ml
- % Reduction ([2]; pH 1.79, 30 seconds contact): 93.839%
- Survivors ([2]; pH 1.79, 30 seconds contact): 34,500,000 org/ml
- % Reduction ([2]; pH 1.89, 10 seconds contact): 92.804%
- Survivors ([2]; pH 1.89, 10 seconds contact): 40,300,000 org/ml
- % Reduction ([2]; pH 1.89, 30 seconds contact): 94.375%
- Survivors ([2]; pH 1.89, 30 seconds contact): 31,500,000 org/ml
- % Reduction ([2]; pH 1.99, 10 seconds contact): 68.750%
- Survivors ([2]; pH 1.99, 10 seconds contact): 175,000,000 org/ml
- % Reduction ([2]; pH 1.99, 30 seconds contact): 81.785%
- Survivors ([2]; pH 1.99, 30 seconds contact): 102,000,000 org/ml
- % Reduction ([2]; pH 2.11, 10 seconds contact): 81.607%
- Survivors ([2]; pH 2.11, 10 seconds contact): 103,000,000 org/ml
- % Reduction ([2]; pH 2.11, 30 seconds contact): 82.857%
- Survivors ([2]; pH 2.11, 30 seconds contact): 96,000,000 org/ml
- % Reduction ([2]; pH 2.18, 10 seconds contact): 79.464%
- Survivors ([2]; pH 2.18, 10 seconds contact): 115,000,000 org/ml
- % Reduction ([2]; pH 2.18, 30 seconds contact): 98.089%
- Survivors ([2]; pH 2.18, 30 seconds contact): 107,000,000 org/ml
- % Reduction ([2]; pH 2.29, 10 seconds contact): 81.250%
- Survivors ([2]; pH 2.29, 10 seconds contact): 105,000,000 org/ml
- % Reduction ([2]; pH 2.29, 30 seconds contact): 86.250%
- Survivors ([2]; pH 2.29, 30 seconds contact): 77,000,000 org/ml
- % Reduction ([2]; pH 2.39, 10 seconds contact): 76.250%
- Survivors ([2]; pH 2.39, 10 seconds contact): 133,000,000 org/ml
- % Reduction ([2]; pH 2.39, 30 seconds contact): 77.142%
- Survivors ([2]; pH 2.39, 30 seconds contact): 128,000,000 org/ml
- % Reduction ([2]; pH 2.49, 10 seconds contact): 71.607%
- Survivors ([2]; pH 2.49, 10 seconds contact): 159,000,000 org/ml
- % Reduction ([2]; pH 2.49, 30 seconds contact): 72.142%
- Survivors ([2]; pH 2.49, 30 seconds contact): 156,000,000 org/ml
- % Reduction (Salmonella enteriditis; [8]): 90.250% and 85.250%
- Survivors (Salmonella enteriditis; [8]): 11,700,000 org/ml and 17,700,000 org/ml
- % Reduction (Salmonella enteriditis; 2000 ppm, pH 1.5, 1 minute contact): 99.962% and 99.983%
- % Reduction (Salmonella enteriditis; [9]): >99.999%
- Survivors (Salmonella enteriditis; [9]): 10 org/ml and 20 org/ml
- % Reduction (Salmonella enteriditis; [10]): <79.167%
- Survivors (Salmonella enteriditis; [10]): >25,000,000 org/ml
- % Reduction (Salmonella enteriditis; [11]): <97.917%
- Survivors (Salmonella enteriditis; [11]): >25,000,000 org/ml
- % Reduction (Salmonella enteriditis; 2000 ppm, pH 1.75, 2 minutes contact): 98.192% and 98.817%
- % Reduction (Salmonella enteriditis; [12]): <79.167%
- Survivors (Salmonella enteriditis; [12]): >25,000,000 org/ml
- % Reduction (Salmonella enteriditis; [13]): <97.917%
- Survivors (Salmonella enteriditis; [13]): >25,000,000 org/ml
- % Reduction (Salmonella enteriditis; [14]): <97.917%
- Survivors (Salmonella enteriditis; [14]): >25,000,000 org/ml
- % Reduction (Salmonella enteriditis; [15]): <79.167%
- Survivors (Salmonella enteriditis; [15]): >25,000,000 org/ml
- % Reduction (Salmonella enteriditis; [16]): <97.917%
- Survivors (Salmonella enteriditis; [16]): >25,000,000 org/ml
- % Reduction (Salmonella enteriditis; [17]): <97.917%
- Survivors (Salmonella enteriditis; [17]): >25,000,000 org/ml
- % Reduction (Salmonella enteriditis; [18]): <79.167%
- Survivors (Salmonella enteriditis; [18]): >25,000,000 org/ml
- % Reduction (Salmonella enteriditis; [19]): <97.917%
- Survivors (Salmonella enteriditis; [19]): >25,000,000 org/ml
- % Reduction (Salmonella enteriditis; [20]): <97.917%
- Survivors (Salmonella enteriditis; [20]): >25,000,000 org/ml
- % Reduction (Salmonella enteriditis; [21]): 96.167% and 92.833%
- Survivors (Salmonella enteriditis; [21]): 4,600,000 org/ml and 8,600,000 org/ml
- % Reduction (Salmonella enteriditis; 4000 ppm, pH 1.5, 1 minute contact): 99.994% and 99.976%
- % Reduction (Salmonella enteriditis; 4000 ppm, pH 1.5, 2 minutes contact): >99.999% and 99.997%
- % Reduction (Salmonella enteriditis; [22]): 94.250% and 92.917%
- Survivors (Salmonella enteriditis; [22]): 6,900,000 org/ml and 8,500,000 org/ml
- % Reduction (Salmonella enteriditis; 4000 ppm, pH 1.75, 1 minute contact): 96.667% and 98.417%
- % Reduction (Salmonella enteriditis; 4000 ppm, pH 1.75, 2 minutes contact): 98.933% and 98.833%
- % Reduction (Salmonella enteriditis; [23]): 83.250% and 84.500%
- Survivors (Salmonella enteriditis; [23]): 20,100,000 org/ml and 18,600,000 org/ml
- % Reduction (Salmonella enteriditis; 4000 ppm, pH 2.0, 1 minute contact): 94.583% and 97.833%
- % Reduction (Salmonella enteriditis; 4000 ppm, pH 2.0, 2 minutes contact): 96.167% and 91.417%
- % Reduction (Salmonella enteriditis; [24]): <79.167%
- Survivors (Salmonella enteriditis; [24]): >25,000,000 org/ml
- % Reduction (Salmonella enteriditis; [25]): <79.167%
- Survivors (Salmonella enteriditis; [25]): >25,000,000 org/ml
- % Reduction (Salmonella enteriditis; [26]): <79.167%
- Survivors (Salmonella enteriditis; [26]): >25,000,000 org/ml
- % Reduction (Salmonella enteriditis; [27]): <79.167%
- Survivors (Salmonella enteriditis; [27]): >25,000,000 org/ml
- % Reduction (Salmonella enteriditis; [28]): <79.167%
- Survivors (Salmonella enteriditis; [28]): >25,000,000 org/ml
- % Reduction (Salmonella enteriditis; [29]): <79.167%
- Survivors (Salmonella enteriditis; [29]): >25,000,000 org/ml
- antimicrobial activity (in words) (Salmonella enteriditis; at less than pH 2.5 and, particularly less than 2.0): greatly enhanced
